For experiment [1], the system named is T1, Nicotinamide N-methyltransferase (Homo sapiens), P40261 [C165A].
T1 sequence (whole entry): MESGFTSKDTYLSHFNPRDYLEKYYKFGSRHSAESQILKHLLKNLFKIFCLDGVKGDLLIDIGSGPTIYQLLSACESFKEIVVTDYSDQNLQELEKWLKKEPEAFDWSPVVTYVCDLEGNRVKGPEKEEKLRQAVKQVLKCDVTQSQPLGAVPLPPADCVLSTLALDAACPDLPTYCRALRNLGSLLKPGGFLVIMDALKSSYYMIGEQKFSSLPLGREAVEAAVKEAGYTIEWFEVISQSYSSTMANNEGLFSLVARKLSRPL
The experiment in a line: Inhibition of NNMT C165A mutant in human 786-O cell lysate using d4-nicotinamide as substrate preincubated for 1 hr followed by substrate and SAM addition measured after 15 to 30 mins by LC-MS analysis.

Experiment [2] deals with T2, Nicotinamide N-methyltransferase (Homo sapiens) (UniProt P40261).
T2 sequence (whole entry): T1 sequence (whole entry) with A165C
As to the kind of experiment: Inhibition of SAH-rhodamine binding to NNMT in human 786-O cell soluble proteomic lysate assessed as ratio of observed rate constant to test compound concentration preincubated for 10 to 40 mins followed by SAH-rhodamine addition measured after 5 mins by Gel-based ABPP analysis.

The target of experiment [3] is T2, Nicotinamide N-methyltransferase (Homo sapiens). The experiment in a line: Binding affinity to NNMT C50 residue in human 786-O cell soluble proteomic lysate at 5 uM incubated for 1 hr followed by cell lysis by IA-alkyne probe based isoTOP-ABPP analysis relative to control.
The target of experiment [4] is T3, Heme oxygenase 2 (Homo sapiens) (UniProt P30519).
T3 sequence (whole entry): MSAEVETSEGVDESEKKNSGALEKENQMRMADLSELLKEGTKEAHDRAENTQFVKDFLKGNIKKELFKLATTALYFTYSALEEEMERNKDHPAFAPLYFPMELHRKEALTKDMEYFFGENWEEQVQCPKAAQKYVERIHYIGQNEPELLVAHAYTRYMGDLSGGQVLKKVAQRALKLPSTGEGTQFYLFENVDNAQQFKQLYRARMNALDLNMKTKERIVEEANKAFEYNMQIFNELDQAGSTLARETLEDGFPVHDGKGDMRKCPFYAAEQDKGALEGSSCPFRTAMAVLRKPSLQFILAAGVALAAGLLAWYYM
The experiment in a line: Binding affinity to HMOX2 cysteine residue in human 786-O cell soluble proteomic lysate at 5 uM incubated for 1 hr followed by cell lysis by IA-alkyne probe based isoTOP-ABPP analysis.

In experiment [5] the target is T2, Nicotinamide N-methyltransferase (Homo sapiens). As to the kind of experiment: Inhibition of SAH-rhodamine binding to NNMT in human 786-O cell soluble proteomic lysate at 2 uM preincubated for 1 hr followed by SAH-rhodamine addition measured after 5 mins by Gel-based ABPP analysis.
The target of experiment [6] is T4, Nicotinamide N-methyltransferase (Homo sapiens, UniProt P40261).
T4 sequence (P40261 whole entry): T1 sequence (whole entry) with A165C
As to the kind of experiment: (§1) Inhibition of SAH-rhodamine binding to NNMT in human 786-O cell soluble proteomic lysate preincubated for 1 hr followed by SAH-rhodamine addition measured after 5 mins by Gel-based ABPP analysis.

Experiment [7] addresses T2, Nicotinamide N-methyltransferase (Homo sapiens). Described as §1.
The target is the same in experiment [8]. The experiment in a line: Binding affinity to NNMT C75 residue in human 786-O cell soluble proteomic lysate at 5 uM incubated for 1 hr followed by cell lysis by IA-alkyne probe based isoTOP-ABPP analysis relative to control.
Experiment [9] has the same target. The experiment in a line: Binding affinity to NNMT C165 residue in human 786-O cell lysate at 5 uM incubated for 4 hrs followed by cell lysis by IA-alkyne probe based isoTOP-ABPP analysis.
In experiment [10] the target is T5, Glutathione S-transferase omega-1 (Homo sapiens) (UniProt P78417).
T5 sequence (whole entry): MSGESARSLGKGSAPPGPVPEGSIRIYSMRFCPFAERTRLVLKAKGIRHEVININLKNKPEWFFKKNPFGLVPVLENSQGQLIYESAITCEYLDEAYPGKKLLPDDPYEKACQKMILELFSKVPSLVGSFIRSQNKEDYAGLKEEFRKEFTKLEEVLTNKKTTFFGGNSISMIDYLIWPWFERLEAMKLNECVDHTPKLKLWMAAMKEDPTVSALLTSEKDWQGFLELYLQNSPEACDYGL
As to the kind of experiment: Binding affinity to GSTO1 cysteine residue in human 786-O cell soluble proteomic lysate at 5 uM incubated for 1 hr followed by cell lysis by IA-alkyne probe based isoTOP-ABPP analysis.

Experiment [11] has as its target T2, Nicotinamide N-methyltransferase (Homo sapiens). As to the kind of experiment: Binding affinity to NNMT C115 residue in human 786-O cell soluble proteomic lysate at 5 uM incubated for 1 hr followed by cell lysis by IA-alkyne probe based isoTOP-ABPP analysis relative to control.
For experiment [12], the target named is T4, Nicotinamide N-methyltransferase. As to the kind of experiment: (§2) Inhibition of NNMT in human 786-O cell lysate using d4-nicotinamide as substrate preincubated for 1 hr followed by substrate and SAM addition measured after 15 to 30 mins by LC-MS analysis.
Experiment [13] deals with T2, Nicotinamide N-methyltransferase (Homo sapiens). Described as §2.
Experiment [14] shares this target. The experiment in a line: Binding affinity to NNMT C165 residue in human 786-O cell soluble proteomic lysate at 1 to 5 uM incubated for 1 hr followed by cell lysis by IA-alkyne probe based isoTOP-ABPP analysis.
For experiment [15] the target is unchanged. As to the kind of experiment: Binding affinity to NNMT C165 residue in human 786-O cell soluble proteomic lysate at 5 uM incubated for 1 hr followed by cell lysis by IA-alkyne probe based isoTOP-ABPP analysis relative to control.
For experiment [16], the target named is T6, Cytoskeleton-associated protein 4 (Homo sapiens) (UniProt Q07065).
T6 sequence (whole entry): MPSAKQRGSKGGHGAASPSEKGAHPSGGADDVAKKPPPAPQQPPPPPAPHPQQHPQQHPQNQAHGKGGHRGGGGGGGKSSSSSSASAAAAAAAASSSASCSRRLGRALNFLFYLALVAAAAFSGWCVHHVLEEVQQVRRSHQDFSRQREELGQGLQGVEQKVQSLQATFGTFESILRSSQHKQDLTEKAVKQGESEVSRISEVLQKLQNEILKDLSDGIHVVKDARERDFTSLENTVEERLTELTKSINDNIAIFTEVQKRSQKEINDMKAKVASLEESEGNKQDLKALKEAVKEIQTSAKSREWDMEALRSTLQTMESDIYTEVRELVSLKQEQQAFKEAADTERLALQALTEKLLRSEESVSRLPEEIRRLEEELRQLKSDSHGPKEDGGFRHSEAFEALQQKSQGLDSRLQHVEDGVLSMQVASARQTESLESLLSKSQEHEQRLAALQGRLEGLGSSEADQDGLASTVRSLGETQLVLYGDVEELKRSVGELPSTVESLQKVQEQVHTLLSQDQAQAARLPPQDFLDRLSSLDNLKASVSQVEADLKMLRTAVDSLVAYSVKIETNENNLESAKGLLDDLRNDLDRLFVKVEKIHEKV
As to the kind of experiment: Binding affinity to CKAP4 cysteine residue in human 786-O cell soluble proteomic lysate at 5 uM incubated for 1 hr followed by cell lysis by IA-alkyne probe based isoTOP-ABPP analysis.

Broadly, the IC50 is the midpoint of a concentration-inhibition curve. Low values mean inhibition by little substance, high ones a need for much substance.

Residue numbers refer to the chain shown, from its start. The source made the active and inactive calls. The calls are words filed in the database; no cut-off is given here.

For `CC(C)CCN(C(=O)CCl)c1cc(C(=O)Nc2cccnc2Cl)cc(C(F)(F)F)c1`, the inhibition entry in experiment [1] is “inactive”. Moreover, in experiment [2], the Ratio is 200 M⁻¹ s⁻¹. For the same compound, the fold change (FC) in experiment [3] came to 1.3; in [8], 1.3; in [11], 1; in [15], 20. For the same compound, the outcome in experiment [4], in experiment [10], in experiment [14] and in [16] was Active. Also, in experiment [5], the inhibition result is “Active”. Moreover, the concentration for half-maximal inhibition (IC50) is 0.41 µM in experiment [6] and 0.2 µM in [12]. The inhibition result in [7] and in [13] was “Dose-dependent effect” throughout. Besides, the result in experiment [9] was inactive.

(Values after ChEMBL document CHEMBL4229400, “Covalent inhibitors of nicotinamide N-methyltransferase (NNMT) provide evidence for target engagement challenges in situ” (Bioorg Med Chem Lett, 2018).)
